The text below walks through data of ChEMBL document CHEMBL4359858, “Potently inhibiting cancer cell migration with novel 3H-pyrazolo[4,3-f]quinoline boronic acid ROCK inhibitors” (Eur J Med Chem, 2019).

The source made the active and inactive calls. The rule behind the calls is not given here.

Data set [1] has as its target T1, Rho-associated protein kinase 2 (Homo sapiens, UniProt O75116). Put plainly: Inhibition of active ROCK2 (R11-11G) (unknown origin) at 100 nM using S6K as substrate incubated for 3 hrs by ADP-Glo kinase assay relative to control. Background: ADP-Glo turns the ADP formed in a reaction into a luminescent signal.
Target sequence in this assay (O75116 whole entry, looked up): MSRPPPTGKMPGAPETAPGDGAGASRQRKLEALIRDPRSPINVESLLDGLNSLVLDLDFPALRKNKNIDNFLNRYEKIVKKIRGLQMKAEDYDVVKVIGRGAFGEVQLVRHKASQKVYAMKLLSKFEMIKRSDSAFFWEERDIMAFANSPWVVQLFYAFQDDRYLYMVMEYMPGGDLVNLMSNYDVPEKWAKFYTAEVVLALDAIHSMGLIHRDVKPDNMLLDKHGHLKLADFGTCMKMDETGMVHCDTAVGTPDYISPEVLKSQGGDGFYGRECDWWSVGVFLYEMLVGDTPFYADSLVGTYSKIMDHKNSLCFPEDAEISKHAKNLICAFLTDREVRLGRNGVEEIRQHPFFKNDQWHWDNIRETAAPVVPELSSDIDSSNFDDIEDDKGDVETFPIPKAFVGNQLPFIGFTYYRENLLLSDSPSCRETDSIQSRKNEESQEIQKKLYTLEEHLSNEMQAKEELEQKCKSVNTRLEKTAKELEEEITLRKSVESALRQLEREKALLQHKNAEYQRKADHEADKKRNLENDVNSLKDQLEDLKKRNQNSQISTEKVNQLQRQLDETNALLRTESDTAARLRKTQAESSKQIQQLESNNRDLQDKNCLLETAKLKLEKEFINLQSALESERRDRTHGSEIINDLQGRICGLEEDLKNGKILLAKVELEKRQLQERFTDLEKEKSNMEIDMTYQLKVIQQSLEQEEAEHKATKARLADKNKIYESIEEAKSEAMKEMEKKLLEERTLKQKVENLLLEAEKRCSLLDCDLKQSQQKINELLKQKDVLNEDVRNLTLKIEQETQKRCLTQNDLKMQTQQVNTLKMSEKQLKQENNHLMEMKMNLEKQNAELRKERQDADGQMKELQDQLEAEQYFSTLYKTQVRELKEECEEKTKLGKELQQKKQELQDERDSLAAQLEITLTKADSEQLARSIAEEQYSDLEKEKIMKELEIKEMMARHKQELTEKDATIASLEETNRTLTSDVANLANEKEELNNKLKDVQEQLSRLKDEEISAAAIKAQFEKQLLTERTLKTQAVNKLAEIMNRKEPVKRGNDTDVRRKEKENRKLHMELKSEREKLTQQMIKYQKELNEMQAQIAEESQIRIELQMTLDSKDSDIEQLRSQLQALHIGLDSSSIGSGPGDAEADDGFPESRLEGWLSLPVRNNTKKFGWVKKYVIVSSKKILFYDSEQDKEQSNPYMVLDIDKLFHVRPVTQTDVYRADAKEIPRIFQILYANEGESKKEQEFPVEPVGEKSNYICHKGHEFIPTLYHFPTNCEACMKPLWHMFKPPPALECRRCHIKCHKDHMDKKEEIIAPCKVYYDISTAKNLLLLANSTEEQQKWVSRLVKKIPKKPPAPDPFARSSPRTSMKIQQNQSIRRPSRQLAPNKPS
Data set [2] has as its system MDA-MB-231. The experiment in a line: Cytotoxicity against human MDA-MB-231 cells assessed as reduction in cell viability at 5 uM incubated for 12 hrs by CellTiter-Blue assay. Format: cell-based. As to conditions: mda-mb-231, 12 h.
In data set [3] the test system is MDA-MB-231. Put plainly: Inhibition of cell migration of human MDA-MB-231 cells at 1 uM incubated for 24 hrs. Type of data set: functional, cell-based.
Data set [4] can be described thus: Cytotoxicity against human MDA-MB-231 cells assessed as cell viability at 10 uM incubated for 12 hrs by CellTiter-Blue assay relative to control. Type of data set: cell-based. The following applies: read-out: Activity. On the technique in general: The colour change of resazurin is a common sign of viable cells or microbes.
A short description of data set [5]: Cytotoxicity against human MDA-MB-231 cells assessed as cell viability at 10 uM incubated for 24 hrs by CellTiter-Blue assay relative to control. As to conditions: read-out: Activity. Format: cell-based.
For data set [6], the target named is T1, Rho-associated protein kinase 2. Put plainly: Binding affinity to ROCK2 (unknown origin) incubated for 1 hr by qPCR analysis. In general terms: Quantitative PCR measures a nucleic acid by following its amplification.
Target sequence in this assay (O75116 whole entry): as the sequence (O75116 whole entry, looked up) above
Data set [7] deals with T2, Rho-associated protein kinase 1 (Homo sapiens, UniProt Q13464). The experiment in a line: Inhibition of human ROCK1 using KEAKEKRQEQIAKRRRLSSLRASTSKSGGSQK as substrate incubated for 20 mins in presence of [gamma33P]ATP by filter binding method.
T2 sequence (Q13464 whole entry): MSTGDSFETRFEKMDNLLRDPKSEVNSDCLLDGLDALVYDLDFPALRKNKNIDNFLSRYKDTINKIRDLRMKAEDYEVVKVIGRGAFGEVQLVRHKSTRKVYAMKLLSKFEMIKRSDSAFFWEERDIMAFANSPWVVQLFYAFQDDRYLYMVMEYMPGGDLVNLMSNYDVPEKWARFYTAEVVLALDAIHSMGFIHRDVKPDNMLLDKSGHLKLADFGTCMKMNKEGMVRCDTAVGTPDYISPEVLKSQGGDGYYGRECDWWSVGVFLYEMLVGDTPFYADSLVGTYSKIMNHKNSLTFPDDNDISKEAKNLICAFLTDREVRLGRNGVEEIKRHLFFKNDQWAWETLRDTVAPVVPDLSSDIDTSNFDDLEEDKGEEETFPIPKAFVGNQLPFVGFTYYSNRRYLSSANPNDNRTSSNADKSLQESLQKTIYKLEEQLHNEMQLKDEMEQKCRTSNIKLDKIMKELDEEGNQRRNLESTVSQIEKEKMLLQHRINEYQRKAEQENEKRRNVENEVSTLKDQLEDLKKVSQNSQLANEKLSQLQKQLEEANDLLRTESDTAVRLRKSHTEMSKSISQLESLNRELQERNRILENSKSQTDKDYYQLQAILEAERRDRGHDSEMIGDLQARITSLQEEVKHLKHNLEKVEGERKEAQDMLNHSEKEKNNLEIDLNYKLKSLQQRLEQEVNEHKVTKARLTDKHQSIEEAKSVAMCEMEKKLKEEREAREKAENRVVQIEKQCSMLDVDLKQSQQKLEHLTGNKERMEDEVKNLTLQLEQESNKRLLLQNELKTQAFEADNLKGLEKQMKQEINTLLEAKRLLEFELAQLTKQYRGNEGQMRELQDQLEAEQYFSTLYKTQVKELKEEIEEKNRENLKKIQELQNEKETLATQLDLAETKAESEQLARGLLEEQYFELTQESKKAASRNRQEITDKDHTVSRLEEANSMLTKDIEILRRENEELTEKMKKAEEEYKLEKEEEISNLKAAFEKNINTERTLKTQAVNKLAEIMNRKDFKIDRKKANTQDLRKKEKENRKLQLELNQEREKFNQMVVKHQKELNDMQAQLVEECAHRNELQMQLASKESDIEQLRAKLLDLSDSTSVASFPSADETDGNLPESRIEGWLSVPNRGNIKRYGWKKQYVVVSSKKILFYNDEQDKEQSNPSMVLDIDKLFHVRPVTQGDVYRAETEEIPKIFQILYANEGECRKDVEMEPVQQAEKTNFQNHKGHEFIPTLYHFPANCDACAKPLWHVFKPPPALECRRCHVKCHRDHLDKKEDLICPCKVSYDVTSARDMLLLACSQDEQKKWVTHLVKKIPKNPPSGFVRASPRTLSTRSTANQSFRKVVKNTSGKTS
For data set [8], the target named is T1, Rho-associated protein kinase 2. Put plainly: Inhibition of human ROCK2 using KEAKEKRQEQIAKRRRLSSLRASTSKSGGSQK as substrate incubated for 20 mins in presence of [gamma33P]ATP by filter binding method.
Target sequence in this assay (O75116 whole entry): as the sequence (O75116 whole entry, looked up) above
The target of data set [9] is T2, Rho-associated protein kinase 1. Put plainly: Binding affinity to ROCK1 (unknown origin) incubated for 1 hrs by qPCR analysis.
The target is the same in data set [10]. The experiment in a line: Inhibition of recombinant human GST-tagged ROCK1 (1 to 535 residues) using myelin basic protein as substrate incubated for 30 mins by ADP-Glo assay.
Data set [11] deals with T1, Rho-associated protein kinase 2. Put plainly: Inhibition of recombinant human GST-tagged ROCK2 (1 to 552 residues) using myelin basic protein as substrate incubated for 30 mins by ADP-Glo assay.
Target sequence in this assay (O75116 whole entry): as the sequence (O75116 whole entry, looked up) above

A word on the inhibition: it is how much of the control response was suppressed. Consider `OB(O)c1csc(-c2nc3ccc4[nH]ncc4c3c3c2CCCC3)c1`, for which the inhibition result in data set [1] is “Active”.

For `COc1ccc(-c2nc3ccc4[nH]ncc4c3c3c2CCCC3)cc1B(O)O`, the inhibition entry in data set [1] is “Active”. Still for that read-out and setting: next, `OB(O)c1cccc(-c2nc3ccc4[nH]ncc4c3cc2-c2ccc(F)c(Cl)c2)c1F`: “Active”; `OB(O)c1cccc(-c2nc3ccc4[nH]ncc4c3c3c2CCCC3)c1`: “Active”. Regarding `COc1c(B(O)O)cccc1-c1cc(-c2ccc(F)c(Cl)c2)c2c(ccc3[nH]ncc32)n1`, the inhibition in data set [1] lay in the range of 10 to 15%. Still for that read-out and setting: next, `OB(O)c1cccc(-c2nc3ccc4[nH]ncc4c3cc2-c2ccccc2)c1F`: “Active”. The same measure, in the same setting: next, `c1cc(-c2nc3ccc4[nH]ncc4c3c3c2CCCC3)cs1`: “Active”. Regarding `OB(O)c1ccc(-c2nc3ccc4[nH]ncc4c3c3c2CCCC3)cc1F`, in [1], the inhibition entry is “Active”. With `COc1c(B(O)O)cccc1-c1nc2ccc3[nH]ncc3c2cc1C`, the inhibition entry in data set [1] was “Active”.

Turning to `Cc1ccc(C(=O)OCc2ccc([C@@H](CN)C(=O)Nc3ccc4cnccc4c3)cc2)c(C)c1`, the Activity entry in the data set with MDA-MB-231 [2] was “Toxic”. Also, the inhibition entry in the data set with MDA-MB-231 [3] is “inactive”. As to `OB(O)c1ccc(-c2nc3ccc4[nH]ncc4c3c3c2CCCC3)cc1`, the inhibition entry in data set [1] is “Active”.

`COc1c(B(O)O)cccc1-c1cc(-c2cc(F)cc(F)c2)c2c(ccc3[nH]ncc32)n1` came in with an inhibition in [1] of 10 to 15%.

In the case of `COc1c(B(O)O)cccc1-c1nc2ccc3[nH]ncc3c2cc1-c1ccncc1`, the inhibition result in data set [1] is “Active”. On to `OB(O)c1ccc(-c2nc3ccc4[nH]ncc4c3c3c2CCCC3)o1`, for which the inhibition result in data set [1] is “Active”. One may read the Kd as the concentration at which binding is half-saturated. A higher Kd goes with lower affinity. The term IC50 denotes the concentration that gives 50% inhibition. The compound `COc1c(B(O)O)cccc1-c1nc2ccc3[nH]ncc3c2c2c1CCC2` showed an inhibition in [1] of 59%. In addition, the viability at 12 h, 10 µM in data set [4] was 75 to 80%. In data set [5], the viability at 24 h, 10 µM lay in the range of 60 to 63%. The figures for the Kd in data set [6] and in [9] were 1.2 to 1.3 nM and 1.5 to 1.8 nM, respectively. The half-maximal inhibitory concentration (IC50) was 1.22 nM in data set [7] and 0.51 nM in data set [8]. The inhibition result with MDA-MB-231 [3] was “Active”.

As for `COc1nc(N[C@H]2CC[C@H](N)CC2)c(F)cc1C(N)=O`, the IC50 in data set [10] amounted to 10 nM; in data set [11], 7.8 nM.

In [1], `c1nc2ccc3[nH]ncc3c2c2c1CCCC2` displayed an inhibition of 10 to 15%. Regarding `OB(O)c1cccc(-c2nc3ccc4[nH]ncc4c3c3c2CCCC3)c1F`, in data set [1], the inhibition result is “Active”. As to `Cc1n[nH]c2ccc3nc(-c4sccc4B(O)O)c4c(c3c12)CCC4`, the inhibition entry in data set [1] is “Active”. Same read-out and setting: under `COc1c(B(O)O)cccc1-c1nc2ccc3[nH]ncc3c2cc1-c1ccc(Cl)cc1` stands “Active”; under `OB(O)c1ccc(-c2cc(-c3ccc(F)c(Cl)c3)c3c(ccc4[nH]ncc43)n2)cc1F`, 10 to 15%. As to `c1csc(-c2nc3ccc4[nH]ncc4c3c3c2CCCC3)c1`, the inhibition result in [1] is “Active”. In turn, `COc1c(B(O)O)cccc1-c1nc2ccc3[nH]nc(C)c3c2c2c1CCC2` returned an inhibition in data set [1] of 32%.
